{"source": "patent US8241607B2", "about": "“Use of fructose-based compounds for the diagnosis of cancer” (priority 2005, dated 2012)", "key": {"[1]": {"tested_on": "AP-1", "test": "AP-1 probe binding assay on nuclear extracts of PANC-1 cells", "type": "cell-based", "conditions": "5.5 mM fructose, 48 h", "description": "FIG. 24 depicts luciferase activity of PANC-1 cells and primary culture of surgically resected pancreatic tumor cells in accordance with an embodiment of the present invention. PANC-1 pancreatic cancer cells and a primary culture of a surgically resected pancreatic tumor were incubated in 2 mM glucose, 5.5 mM glucose or 5.5 mM fructose for 48 h, after which nuclear extracts were incubated with a biotinylated AP-1 probe, and detected by an antibody-linked colorimetric method. *, p<0.01\nIn separate experiments PANC-1 cells, and primary cultures of surgically resected pancreatic tumors were incubated in 2 mM glucose, or 5.5 mM glucose or 5.5 mM fructose for 48 h, after which nuclear extracts were incubated with a biotinylated AP-1 probe in binding buffer. AP-1/AP1 probe complexes were next conjugated to a streptavidin-coated assay plate and detected using an AP-1 specific antibody, followed by binding of a horseradish-peroxidase conjugated secondary antibody, and detection by a colorimetric reagent."}, "[2]": {"tested_on": "PANC-1 cells", "test": "[1,2-13C2] stable isotope-based dynamic metabolic profiling in PANC-1 cells", "type": "cell-based", "conditions": "72 h", "description": "FIG. 28 depicts the metabolism of fructose and glucose in pancreatic cancer cells in accordance with an embodiment of the present invention. Lactate generation from glycolysis (a), and hexose oxidation in the pentose and tricarboxylic acid cycles (b) following treatment of PANC-1 cells with 2 mM glucose, 5.5 mM glucose, and 5.5 mM fructose for 72 h. […] In (b), the ^13C to ^12C ratio in the CO2 released from the PANC-1 cells is presented.\nFIG. 29 depicts fatty acid synthesis from glucose versus fructose in accordance with an embodiment of the present invention. Fatty acid synthesis represented by (a), ^13C-labelled oleate, (b) ^13C-labelled arachidic acid, and (c) ^13C-labelled 24-carbon fatty acid fraction following treatment of PANC-1 cells with 2 mM, and 5.5 mM glucose, and 5.5 mM fructose for 72 h. For the fatty acids, the fraction of ^13C-labeled oleate, arachidic acid or 24-carbon fatty acid is expressed as percentage of total oleate, arachidic acid or 24-carbon fatty acids, respectively.\nFIG. 30 depicts ribose and deoxyribose synthesis following glucose and fructose treatment in accordance with an embodiment of the present invention.\nMetabolism comprises anabolic (converting small molecules into big ones) and catabolic processes (converting food into useful energy), predicts the functional state of a cell, and analyzes the levels of the end products (metabolites) of anabolism and catabolism. Metabolic profiling using stable isotope tracer technology ([1,2-^13C] sugars) allows the measurement of the changing pattern of distribution of ^13C carbons from [1,2-^13C] glucose in intracellular metabolic intermediates, and provides a simultaneous measure of carbon flow toward the pentose cycle, glycolysis, direct glucose oxidation, tricarboxylic acid (TCA) cycle and fatty acid synthesis (76,77). […] The inventors employed [1,2-^13C2] glucose, or [1,2-^13C2] fructose stable isotope-based dynamic metabolic profiling (SiDMAP, Los Angeles, US) to track and quantify changes in glucose, and fructose carbon re-distribution among major metabolic pathways in pancreatic cancer cells (Lee W N, Boros L G, Puigjaner J, Bassilian S, Lim S, Cascante M. Mass istopomer study of transketolase-transaldolase pathways of the pentose cycle with [1,2-^13C2]glucose. Am J Physiol 274:E843-51, 1998; Lee W N, Byerley L O, Bassilian S, Ajie H O, Clark I, Edmond J. Isotopomer study of lipogenesis in human hepatoma cells in culture: contribution of carbon and hydrogen atoms from glucose. Anal Biochem 226: 100-112). The principles of this methodology are outlined below in a series of schematics (FIGS. 25-27) illustrating how this technique tracked carbohydrate metabolism and the data generated. […]"}}}
{"compound": "O=C(CO)[C@@H](O)[C@H](O)[C@H](O)CO", "note": "[fructose]", "values": [{"measurement": "AP-1 luciferase reporter activity higher than in 5.5 mM glucose", "setting": "[1]", "value": "approximately 40%"}, {"measurement": "route of metabolism in the pentose phosphate shunt", "setting": "[2]; 5.5 mM 13C-labeled sugar", "value": "preferentially metabolized by TKK"}, {"measurement": "fraction metabolized for fatty acid synthesis (FAS)", "setting": "[2]; 13C-labeled fructose vs glucose", "value": "comparatively less"}, {"measurement": "CO2 production, fructose in comparison to glucose", "setting": "[2]; 13C-labeled sugar", "value": 34, "unit": "fold lower"}, {"measurement": "lactate production, fructose in comparison to glucose", "setting": "[2]; 13C-labeled sugar", "value": 34, "unit": "fold lower"}]}
